Results from patent publication US8207159B2, “Use of galanthamine for the treatment of pathological manifestations of the central nervous system based on intoxications with psychotropic substances” (priority 2001, dated 2012).

Key:
[1] = system: rats; assay: Animal experiments: administration of galanthamine to rats, cognitive abilities; assay type: in vivo, rat; settings: restoration did not occur, or occurred only considerably later, in untreated control animals
Description: (§1) A further advantage in this connexion is in particular that better control over the addictive behaviour is made possible, so that the risk of relapse is reduced.

[2] = system: chronically dependent alcoholics; assay: Clinical studies on chronically dependent alcoholics, cognitive performance; assay type: in vivo, human
Description: as §1

SMILES: COc1ccc2c3c1O[C@H]1C[C@@H](O)C=C[C@@]31CCN(C)C2 [galanthamine, 4a,5,9,10,11,12-hexahydro-3-methoxy-11-methyl-6-H-benzofuro-(3a,3,2-ef)-(2)-benzazepin-6-ol]
- recovery of cognitive abilities [1]: recovery of cognitive abilities
- cognitive performance of the subjects [2]: general improvement in the cognitive performance
